Experimental data published in ChEMBL document CHEMBL5532655, “Discovery of (R)-4-(8-methoxy-2-methyl-1-(1-phenylethy)-1H-imidazo[4,5-c]quinnolin-7-yl)-3,5-dimethylisoxazole as a potent and selective BET inhibitor for treatment of acute myeloid leukemia (AML) guided by FEP calculation” (Eur J Med Chem, 2024).
The source made the active and inactive calls. The rule behind the calls is not given here.

Columns and labels:
[1] = target: Bromodomain testis-specific protein (Homo sapiens) (UniProt Q58F21); details: time 30.0 min
[2] = target: Bromodomain-containing protein 2 (Homo sapiens) (UniProt P25440); details: time 30.0 min
Sequence of Bromodomain-containing protein 2 (Homo sapiens) (P25440 whole entry, looked up): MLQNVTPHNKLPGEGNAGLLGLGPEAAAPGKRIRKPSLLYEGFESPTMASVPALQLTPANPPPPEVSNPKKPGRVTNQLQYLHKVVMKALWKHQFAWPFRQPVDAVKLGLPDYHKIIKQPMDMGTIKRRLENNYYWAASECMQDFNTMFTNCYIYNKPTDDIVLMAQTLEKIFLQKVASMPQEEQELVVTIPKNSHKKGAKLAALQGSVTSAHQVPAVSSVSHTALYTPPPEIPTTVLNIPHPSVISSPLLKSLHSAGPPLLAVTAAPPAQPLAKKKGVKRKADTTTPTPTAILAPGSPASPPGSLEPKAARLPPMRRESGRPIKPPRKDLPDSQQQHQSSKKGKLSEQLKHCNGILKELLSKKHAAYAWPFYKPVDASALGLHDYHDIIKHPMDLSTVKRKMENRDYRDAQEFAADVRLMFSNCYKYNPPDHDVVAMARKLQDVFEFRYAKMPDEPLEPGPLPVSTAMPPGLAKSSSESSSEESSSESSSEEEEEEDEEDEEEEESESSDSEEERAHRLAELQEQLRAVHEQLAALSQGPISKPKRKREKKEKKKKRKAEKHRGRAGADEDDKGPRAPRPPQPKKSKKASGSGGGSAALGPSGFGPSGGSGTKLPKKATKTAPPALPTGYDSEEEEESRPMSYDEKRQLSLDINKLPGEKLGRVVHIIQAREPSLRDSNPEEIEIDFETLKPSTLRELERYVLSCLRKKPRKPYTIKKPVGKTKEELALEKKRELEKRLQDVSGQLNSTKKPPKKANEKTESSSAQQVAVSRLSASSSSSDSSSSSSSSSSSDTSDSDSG

[3] = target: T1, Bromodomain-containing protein 7 (Homo sapiens) (UniProt Q9NPI1); assay: Binding affinity to BRD7 (unknown origin) using biotinylated histone peptide H4 as substrate at 1 uM incubated for 2 hrs by AlphaScreen assay relative to control
T1 sequence (whole entry): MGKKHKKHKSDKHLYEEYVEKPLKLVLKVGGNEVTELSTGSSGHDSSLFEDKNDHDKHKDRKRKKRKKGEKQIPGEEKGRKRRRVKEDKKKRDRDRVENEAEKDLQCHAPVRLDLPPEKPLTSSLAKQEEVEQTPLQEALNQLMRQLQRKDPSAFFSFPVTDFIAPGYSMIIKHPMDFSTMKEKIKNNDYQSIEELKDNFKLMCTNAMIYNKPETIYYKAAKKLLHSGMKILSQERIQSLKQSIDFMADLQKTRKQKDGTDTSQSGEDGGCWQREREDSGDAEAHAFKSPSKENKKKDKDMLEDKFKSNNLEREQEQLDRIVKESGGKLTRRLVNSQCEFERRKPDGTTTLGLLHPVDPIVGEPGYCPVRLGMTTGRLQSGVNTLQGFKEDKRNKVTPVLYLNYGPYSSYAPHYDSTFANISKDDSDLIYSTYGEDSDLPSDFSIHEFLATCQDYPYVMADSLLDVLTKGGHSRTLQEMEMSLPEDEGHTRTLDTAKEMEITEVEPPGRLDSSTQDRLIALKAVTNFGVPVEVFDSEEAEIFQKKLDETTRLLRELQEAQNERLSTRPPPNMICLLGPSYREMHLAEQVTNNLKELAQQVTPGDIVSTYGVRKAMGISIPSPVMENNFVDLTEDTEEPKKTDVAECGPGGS

[4] = Oral bioavailability in Sprague-Dawley rat at 10 mg/kg measured upto 24 hrs by LC-MS/MS analysis; format: ADME, organism-based; details: in vivo
[5] = AUC (0-infinity) in Sprague-Dawley rat at 10 mg/kg,po administration measured upto 24 hrs by LC-MS/MS analysis; format: ADME, organism-based; details: in vivo
[6] = MRTinfinity in Sprague-Dawley rat at 1 mg/kg,iv administration measured upto 24 hrs by LC-MS/MS analysis; format: ADME, organism-based; details: in vivo
MV4-11 [7] = assay: Induction of apoptosis in human MV4-11 cells assessed as necrotic cells at 1.25 uM incubated for 24 hrs by annexin V-FITC/PI staining based flow cytometric analysis (reference value: 2.35 %); format: functional
MV4-11 [8] = assay: Induction of apoptosis in human MV4-11 cells assessed as viable cells at 5 uM incubated for 24 hrs by annexin V-FITC/PI staining based flow cytometric analysis (reference value: 97%); format: functional; details: Homo sapiens, MV4-11, read-out: Activity
[9] = Cmax in Sprague-Dawley rat at 10 mg/kg,po administration measured upto 24 hrs by LC-MS/MS analysis; format: ADME, organism-based; details: in vivo
[10] = AUC (0-t) in Sprague-Dawley rat at 1 mg/kg,iv administration measured upto 24 hrs by LC-MS/MS analysis; format: ADME, organism-based; details: in vivo
MV4-11 [11] = assay: Induction of apoptosis in human MV4-11 cells assessed as downregulation of CDK6 expression at 500 nM hrs by Western blotting analysis; format: functional, cell-based; details: TDE = time-dependent effect
MV4-11 [12] = assay: Induction of apoptosis in human MV4-11 cells assessed as upregulation of cleaved PARP expression at 0.3125 to 2.5 uM incubated for 48 hrs by Western blotting analysis; format: functional, cell-based; details: dose 0.3125-2.5 µM
[13] = Half life in Sprague-Dawley rat at 10 mg/kg,po administration measured upto 24 hrs by LC-MS/MS analysis; format: ADME, organism-based; details: in vivo
[14] = Clearance in Sprague-Dawley rat at 1 mg/kg,iv administration measured upto 24 hrs by LC-MS/MS analysis; format: ADME, organism-based; details: in vivo
MV4-11 [15] = assay: Induction of apoptosis in human MV4-11 cells assessed as necrotic cells at 5 uM incubated for 24 hrs by annexin V-FITC/PI staining based flow cytometric analysis (reference value: 2.35 %); format: functional
MV4-11 [16] = assay: Induction of apoptosis in human MV4-11 cells assessed as necrotic cells at 0.625 uM incubated for 24 hrs by annexin V-FITC/PI staining based flow cytometric analysis (reference value: 2.35 %); format: functional
MV4-11 [17] = assay: Induction of apoptosis in human MV4-11 cells assessed as early apoptotic cells at 2.5 uM incubated for 24 hrs by annexin V-FITC/PI staining based flow cytometric analysis (reference value: 0%); format: functional
MV4-11 [18] = assay: Induction of cell cycle arrest in human MV4-11 cells assessed as accumulation of cells at G0/G1 phase at 1.25 uM incubated for 24 hrs by propidium iodide staining flow cytometric analysis (reference value: 37.64 %); format: functional
MV4-11 [19] = assay: Induction of apoptosis in human MV4-11 cells assessed as necrotic cells at 2.5 uM incubated for 24 hrs by annexin V-FITC/PI staining based flow cytometric analysis (reference value: 2.35 %); format: functional
MV4-11 [20] = assay: Induction of cell cycle arrest in human MV4-11 cells assessed as accumulation of cells at S phase at 2.5 uM incubated for 24 hrs by propidium iodide staining flow cytometric analysis (reference value: 43.94 %); format: functional
MV4-11 [21] = assay: Induction of cell cycle arrest in human MV4-11 cells assessed as accumulation of cells at G2/M phase at 0.625 uM incubated for 24 hrs by propidium iodide staining flow cytometric analysis (reference value: 18 %); format: functional
MV4-11 [22] = assay: Induction of apoptosis in human MV4-11 cells assessed as viable cells at 10 uM incubated for 24 hrs by annexin V-FITC/PI staining based flow cytometric analysis (reference value: 97%); format: functional; details: Homo sapiens, MV4-11, read-out: Activity
[23] = Half life in Sprague-Dawley rat at 1 mg/kg,iv administration measured upto 24 hrs by LC-MS/MS analysis; format: ADME, organism-based; details: in vivo
[24] = MRTinfinity in Sprague-Dawley rat at 10 mg/kg,po administration measured upto 24 hrs by LC-MS/MS analysis; format: ADME, organism-based; details: in vivo
[25] = AUC (0-infinity) in Sprague-Dawley rat at 1 mg/kg,iv administration measured upto 24 hrs by LC-MS/MS analysis; format: ADME, organism-based; details: in vivo
MV4-11 [26] = assay: Antitumor activity against human MV4-11 cells xenografted in BALB/c mouse assessed as tumor growth inhibition at 30 mg/kg administration relative to control; format: functional; details: read-out: TGI
MV4-11 [27] = assay: Induction of apoptosis in human MV4-11 cells assessed as downregulation of c-Myc expression incubated for 48 hrs by Western blotting analysis; format: functional, cell-based
MV4-11 [28] = assay: Induction of cell cycle arrest in human MV4-11 cells assessed as accumulation of cells at G0/G1 phase at 5 uM incubated for 24 hrs by propidium iodide staining flow cytometric analysis (reference value: 37.64 %); format: functional
MV4-11 [29] = assay: Induction of apoptosis in human MV4-11 cells assessed as late apoptotic cells at 0.625 uM incubated for 24 hrs by annexin V-FITC/PI staining based flow cytometric analysis (reference value: 0.04 %); format: functional

**Q.** Which ΔTm [1] does the source give for `COc1cc2c(cc1-c1c(C)n[nH]c1C)ncc1nc(C)n([C@H](C)c3ccccc3)c12` here?
**A.** 5 °C

**Q.** And the ΔTm [2]?
**A.** 5 °C

**Q.** And the Activity [3]?
**A.** < 30%

**Q.** Which results are given for `COc1cc2c(cc1-c1c(C)noc1C)ncc1nc(C)n([C@H](C)c3ccccc3)c12`?
**A.** bioavailability [4]: 114%; AUC(0-inf) [5]: 16000 ng·h/mL; MRT inf [6]: 0.84 h; Activity (MV4-11 [7]): 8%; viability at 5 µM (MV4-11 [8]): 78.4%; Cmax [9]: 1780 ng/mL; AUC(0-t) at 24 h [10]: 1380 ng·h/mL; Activity (MV4-11 [11]): Tde; Activity (MV4-11 [12]): Active; half-life [13]: 2.65 h; clearance [14]: 12.1 mL/min/kg; Activity (MV4-11 [15]): 8%; Activity (MV4-11 [16]): 6%; Activity (MV4-11 [17]): 8.72%; Activity (MV4-11 [18]): 71.52%; Activity (MV4-11 [19]): 8%; Activity (MV4-11 [20]): 20.35%; Activity (MV4-11 [21]): 16.18%; viability at 10 µM (MV4-11 [22]): 73.5%; half-life [23]: 0.7 h; MRT inf [24]: 5.86 h; AUC(0-inf) [25]: 1400 ng·h/mL; Activity [3]: < 30%; inhibition in vivo at 30 mg/kg (MV4-11 [26]): 55.1%; Activity (MV4-11 [27]): Dose-Dependent Effect; Activity (MV4-11 [28]): 78.57%; Activity (MV4-11 [29]): 4.8%
